Measured values: ChEMBL document CHEMBL1201862, “PubChem BioAssay data set” (2004)
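Exposure lasted 48 hours, with cells grown in 96-well plates and compounds tested at five concentrations. GI50 is the concentration that inhibits growth by half.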 The source made the active and inactive calls. Cut-off read from the data, not from the text of the source: active = GI50 up to about 1.1 µM and inactive = higher.

What was measured:
Test in all cases: DTP human tumour cell line panel, 48 h
[1] = tested on: SNB-19
[2] = tested on: CAKI-1
[3] = tested on: NCI-H226
[4] = tested on: TK-10
[5] = tested on: MDA-N
[6] = tested on: CCRF-CEM
[7] = tested on: HT-29
[8] = tested on: DU-145
[9] = tested on: MCF7
[10] = tested on: SK-MEL-2
[11] = tested on: HCT-116
[12] = tested on: PC-3
[13] = tested on: KM12
[14] = tested on: A549
[15] = tested on: BT-549
[16] = tested on: ACHN
[17] = tested on: SK-MEL-28

Measured: GI50

C(=N/Nc1ccccn1)/c1cccnc1
inactive: [1] > 100 µM | [2] > 100 µM | [3] > 100 µM | [4] > 100 µM | [5] > 100 µM | [6] > 100 µM | [7] > 100 µM | [8] > 100 µM | [9] 43.9 µM | [10] > 100 µM | [11] > 100 µM | [12] > 100 µM | [13] 68.7 µM | [14] > 100 µM | [15] > 100 µM | [16] > 100 µM | [17] 87.7 µM

N#C[C@H](C(=O)c1ccccc1F)c1nc2ccccc2[nH]1
inactive: [1] > 100 µM | [2] > 100 µM | [3] > 100 µM | [4] > 100 µM | [5] > 100 µM | [6] 53 µM | [7] 69.2 µM | [8] > 100 µM | [9] 92 µM | [10] > 100 µM | [11] > 100 µM | [12] > 100 µM | [13] 96.2 µM | [14] > 100 µM | [15] > 100 µM | [16] > 100 µM | [17] > 100 µM

COc1cc(C=O)cc(/C=N/N=C/c2ccccc2O)c1O
inactive: [1] 32.3 µM | [2] 19.8 µM | [3] 16.6 µM | [4] 82.6 µM | [5] 25 µM | [6] 8.85 µM | [7] 34.1 µM | [8] 66.4 µM | [9] 64.7 µM | [10] 17.3 µM | [11] 26.1 µM | [12] 12.1 µM | [13] 76.9 µM | [14] 79.6 µM | [15] 10.2 µM | [16] 16.7 µM | [17] 14.7 µM

CC(=O)N1c2ccccc2C23CCN4CC5=CCOC(O)C(C5CC42)C13 (centres undefined)
inactive: [1] > 100 µM | [2] > 100 µM | [3] > 100 µM | [4] > 100 µM | [5] > 100 µM | [6] > 100 µM | [7] > 100 µM | [8] > 100 µM | [9] > 100 µM | [10] > 100 µM | [11] > 100 µM | [12] > 100 µM | [13] > 100 µM | [14] > 100 µM | [15] > 100 µM | [16] > 100 µM | [17] > 100 µM

CCOC(=O)C(C(=S)SC)c1nn2c(=O)cc(C)nc2s1 (centres undefined)
inactive: [1] 21.3 µM | [2] 19.9 µM | [3] 17.9 µM | [4] 35.1 µM | [5] 15.8 µM | [6] 29.4 µM | [7] 21.5 µM | [8] 17.9 µM | [9] 17.1 µM | [10] 20.8 µM | [11] 18.6 µM | [12] 20.9 µM | [13] 26.2 µM | [14] 19.5 µM | [15] 16.9 µM | [16] 20.2 µM | [17] 18.8 µM

COc1ccc2nc3cc([N+](=O)[O-])ccc3c(Nc3ccc(S(=O)(=O)N=C(N)N)cc3)c2c1
inactive: [1] 43.6 µM | [2] 23.3 µM | [3] 20.4 µM | [4] 47.2 µM | [5] 39.3 µM | [6] 11 µM | [7] 22.1 µM | [8] 28.8 µM | [9] 9.55 µM | [10] 18.5 µM | [11] 11.9 µM | [12] 12 µM | [13] 15.5 µM | [14] 47 µM | [15] 33.2 µM | [16] 40.9 µM | [17] > 100 µM

Cc1nc2ccc(S(=O)(=O)Nc3ccccc3Cl)cc2c(=O)n1NC(=O)CNc1ccccc1Cl
inactive: [1] > 100 µM | [2] > 100 µM | [3] > 100 µM | [4] > 100 µM | [5] > 100 µM | [6] > 100 µM | [7] > 100 µM | [8] > 100 µM | [9] > 100 µM | [10] > 100 µM | [11] > 100 µM | [12] > 100 µM | [13] > 100 µM | [14] > 100 µM | [15] > 100 µM | [16] > 100 µM | [17] > 100 µM

CCOC(=O)C#Cc1ccccc1
inactive: [1] 14.8 µM | [2] 14.4 µM | [3] 20 µM | [4] 21.6 µM | [5] 4.09 µM | [6] 2.94 µM | [7] 7.24 µM | [8] 25.8 µM | [9] 10.1 µM | [10] 1.69 µM | [11] 1.91 µM | [12] 8.95 µM | [13] 12.2 µM | [14] 13.2 µM | [15] 11.6 µM | [16] 14.6 µM | [17] 16.8 µM

Cc1ccc(S(=O)(=O)[N-]C2C(=O)c3ccccc3C(=O)C2[n+]2cccc(C(N)=O)c2)cc1 (centres undefined)
inactive: [1] > 100 µM | [2] 40.9 µM | [3] > 100 µM | [4] 33.9 µM | [5] 34.8 µM | [6] > 100 µM | [7] > 100 µM | [8] 40.6 µM | [9] > 100 µM | [10] > 100 µM | [11] 17.4 µM | [12] > 100 µM | [13] > 100 µM | [14] > 100 µM | [15] > 100 µM | [16] > 100 µM | [17] > 100 µM

Nc1c2c(nc3ccccc13)-c1ccccc1CCC2
inactive: [1] 17.7 µM | [2] 14.4 µM | [3] 13.6 µM | [4] 10.7 µM | [5] 13.2 µM | [6] 13.5 µM | [7] 10.3 µM | [8] 15.5 µM | [9] 13.6 µM | [10] 15 µM | [11] 7.16 µM | [12] 15.1 µM | [13] 14.1 µM | [14] 13.8 µM | [15] 17.6 µM | [16] 13.7 µM | [17] 12.7 µM

CC(CC(C)[C@H]1CCC2[C@H]3C(CC(=O)[C@@]21C)[C@@]1(C)CCC(O)C[C@H]1C[C@@H]3O)C(=O)O (some centres undefined)
inactive: [1] > 100 µM | [2] > 100 µM | [3] > 100 µM | [4] > 100 µM | [5] > 100 µM | [6] 43.4 µM | [7] > 100 µM | [8] > 100 µM | [9] 92.3 µM | [10] > 100 µM | [11] > 100 µM | [12] > 100 µM | [13] > 100 µM | [14] > 100 µM | [15] > 100 µM | [16] > 100 µM | [17] > 100 µM

C=C1C(=O)OC2CC3(C)CCCC(C)C3=CC12 (centres undefined)
inactive: [1] 13.1 µM | [2] 3.09 µM | [3] 13.2 µM | [4] 2.46 µM | [5] 3.18 µM | [6] 1.21 µM | [7] 3.3 µM | [8] 3.67 µM | [9] 1.78 µM | [10] 10.4 µM | [11] 3.91 µM | [12] 14.8 µM | [13] 12.6 µM | [14] 12.6 µM | [15] 4.65 µM | [16] 2.61 µM | [17] 2.65 µM
